Results from patent US5162304A, “Pharmaceutical compositions and methods for treatment and prophylaxis of cancer” (priority 1990, dated 1992).
Several values for one entry are separate records, joined by “and”; a condition that tells them apart may be missing. Identical values can stand only once.

What was measured:
[1] = tested on: Ehrlich's ascites carcinoma cells; assay: Test 1: survival of mice inoculated with Ehrlich's ascites carcinoma cells; assay type: in vivo, ddY mice; conditions: i.p., 10 mg/kg/day for 5 days, from 24 hours after inoculation
Description: 5-week old ddY mice were intraperitoneally inoculated with 10^6 Ehrlich's ascites carcinoma cells. Since 24 hours later, 50 mg/ml suspension of a test compound in 0.25% (% by weight. The definition is to be followed hereinafter) solution of Pluronic F68 in physiological saline was intraperitoneally injected to 10 animals/group at a dose of 10 mg/kg/day for 5 days.

[2] = tested on: human lung carcinoma A549 cells; assay: Test 3: colony formation of human lung carcinoma A549 cells; assay type: cell-based; conditions: for tumor growth suppressing effect: A549 cells; for activity at 10 µM: Homo sapiens, A549, 6-hour treatment at 10 μM, read-out: colony formation rate
Description: (§1) 14-methyl-1-pentadecanol and 18-methyl-1-nonadecanol were tested for tumor growth suppressing effects on three different tumor cell strains (Ehrlich's mouse ascites carcinoma cells, human lung carcinoma A549 cells and mouse neuroblastoma NAs-1 cells).
These isomonools suppressed the colony formation rate of human lung A549 cells to 2.2×10^-3 and 4.1×10^-3, respectively, by 6-hour treatment at 10 μM.

[3] = tested on: Ehrlich's mouse ascites carcinoma cells; assay: Test 3: growth of Ehrlich's mouse ascites carcinoma cells; assay type: cell-based; conditions: for tumor growth suppressing effect: Ehrlich's cells; for activity at 10 µM: Mus musculus, Ehrlich, 120 h, 5-day treatment at 10 μM, read-out: growth suppressed to
Description: as §1
These isomonools suppressed the growth of Ehrlich's ascites carcinoma cells to 4.5×10^-3 and 1.5×10^-2, respectively, by 5-day treatment at 10 μM.

[4] = tested on: mouse neuroblastoma NAs-1 cells; assay: Test 3: growth of mouse neuroblastoma NAs-1 cells; assay type: cell-based; conditions: for tumor growth suppressing effect: NAs-1 cells; for growth suppressed to: treatment conditions not given
Description: as §1
The growth of mouse neuroblastoma NAs-1 cells was suppressed to 7.8×10^-3 and 6.5×10^-3, respectively.

Ehrlich's ascites cells = assay: Test 6 and Comparing Test 2: uptake of bleomycin into Ehrlich's ascites cells; assay type: cell-based, mouse; conditions: bleomycin 60 μg/ml + isomonool 0.05 μM
Description: The amount of bleomycin taken up into Ehrlich's ascites cells was determined as a function of time in the case where bleomycin (60 μg/ml) was used in combination with 14-methyl-1-pentadecanol (0.05 μM).

[5] = tested on: Ehrlich's mouse ascites carcinoma cells; assay: Test 7 and Comparing Tests 3 and 4: survival of mice inoculated with Ehrlich's mouse ascites carcinoma cells; assay type: in vivo, male C57BL/6 mice; conditions: bleomycin + isomonool; for Number of surviving mice: of 8
Description: 5-week old male C57BL/6 mice were intraperitoneally inoculated with 10^6 Ehrlich's mouse ascites carcinoma cells. Since 24 hours later, a 50 μg/ml solution of bleomycin in 0.25% HCO-60 solution in physiological saline, and a suspension containing 50 μg/ml of bleomycin and 5 μg/ml of 14-methyl-1-pentadecanol were intraperitoneally injected at a dose of 10 mg/kg·day and 11 mg/kg·day, respectively, to each 8 animals/group for 5 days. The survival time of the injected mice was then followed.

mammary cancer = assay: Test 8: prevention of DMBA-induced mammary cancer; assay type: in vivo, female SD rats; conditions: DMBA 5 mg/body, 20 weeks, unadministered 15/30
Description: 6-week old female SD rats (n=90) were treated as follows using 14-methyl-1-pentadecanol as a carcinogenesis-preventing agent.
Unadministered group: n=30. MF powder feed (ORIENTAL KOBO K.K.) was given as a basic feed.
Administered group A: n=30. A test feed was given continually (for 7 days). The feed was prepared by admixing the said carcinogenesis-preventing agent (after emulsified in Pluronic F-68) with the abovementioned basic feed in an amount of 50 mg/kg.
Administered group B: n=30. A test feed was given continually (for 7 days). The feed was prepared by admixing the said carcinogenesis-preventing agent (after emulsified in Pluronic F-68) with the abovementioned basic feed in an amount of 250 mg/kg.
After the aforementioned treatment, 5 mg/body of […] (DMBA: a carcinogenic compound) was administered by injecting subcutaneously in mammary gland 0.1 ml/body of a 50 mg/ml benzanthracene solution. Then, each of the aforementioned groups was given corresponding feed for 20 weeks.
After the completion of the treatment, the rats were sacrificed and observed for the occurrence of mammary cancer.

stomach carcinoma = assay: Test 9: stomach carcinoma after MNNG; assay type: in vivo, male Wistar rats; conditions: for Histological classification (per animal) / Borrmann's Classification (per animal): 250 mg/kg feed orally for 126 days after MNNG; for Borrmann's Classification (per animal): gross observation; for Survival time (per animal): 250 mg/kg feed, 337 = day of sacrifice; for Cause of death (per animal): 250 mg/kg feed orally
Description: 40 male Wistar rats (8-9-week old, body weight; 110 g) were given a drinking water containing 167 μg/ml of N-methyl-N'-nitro-N-nitrosoguanidine (MNNG: a carcinogenic compound) and a feed (dry pellets CE-2, produced by CLEA JAPAN) for 210 days.
The rats were allotted to 5 groups and treated as follows since the 211th day.
Administered group A: n=8. The compound A of the present invention (See below. The definition is to be followed hereinafter) was administered orally in an amount of 250 mg/kg feed for 126 consecutive days.
Administered group B: n=8. The compound B of the present invention was administered orally in an amount of 250 mg/kg feed for 126 consecutive days.
Administered group C: n=8. The compound C of the present invention was administered orally in an amount of 250 mg/kg feed for 126 consecutive days.
Administered group D: n=8. The compound D of the present invention was administered orally in an amount of 250 mg/kg feed for 126 consecutive days.
On the 337th day, the survining rats were sacrificed and the stomachs were (1) subjected to Borrmann's classification according to gross observation and (2) histologically observed (haematoxylin-eosin stain or ASAN stain), and then classified as follows.

[6] = Carcinostatic, carcinostasis-reinforcing and carcinogenesis-preventing activities (general statement)
bladder mucous membrane = assay: Test 10: pathological changes in bladder mucous membrane after BBN and sodium erythorbate; assay type: in vivo, male F344 rats; conditions: 250 mg/kg in feed; for Number of animals with cancer / Number of animals with papilloma / Number of animals with papillary or tuberous hyperplasia: 28 observed; for Number of animals with cancer: unadministered 19 of 27; for Number of animals with papilloma: unadministered 20 of 27; for Number of animals with papillary or tuberous hyperplasia: unadministered 27 of 27; for Cancer, incidence: unadministered 70; for Papilloma, incidence: unadministered 74; for Papillary or tuberous hyperplasia, incidence: unadministered 100
Source text: 5 groups of 6-week old male F344 rats were givn 0.05% (by weight. The definition is to be followed hereinafter) aqueous solution of N-butyl-N-(4-hydroxybutyl)nitrosoamine (BBN: bladder carcinogenic compound), as an initiator, by water supplying bottles for 4 weeks.

adenocarcinoma 755 cells = assay: Test 2: tumor growth suppression in mice inoculated with adenocarcinoma 755 cells; assay type: in vivo, F1 mongrel mice of C57BL/6 and DBA/2; conditions: s.c., 10 mg/kg/day for 5 days; 10 days after inoculation; control 6.5
Source text: 6-week old F1 mongrel mice of C57BL/6 and DBA/2 were inoculated under back skin with 10^6 adenocarcinoma 755 cells. […] The animals were sacrificed 10 days after the inoculation with adenocarcinoma 755 cells, and the tumor was excised.

CC(C)CCCCCCCCCCCCCO [14-methyl-1-pentadecanol]
mean survival time after inoculation [1]: ≥ 60 days
tumor growth suppressing effect [2]: effective
activity at 10 µM [2]: 0.22%
tumor growth suppressing effect [3]: effective
activity at 10 µM [3]: 0.45%
tumor growth suppressing effect [4]: effective
growth suppressed to [4]: 7.8×10^-3
Bleomycin uptake (Ehrlich's ascites cells; 30 min): 0.13 μg/mg Ehrlich's cell
Bleomycin uptake (Ehrlich's ascites cells; 60 min): 0.26 μg/mg Ehrlich's cell
Bleomycin uptake (Ehrlich's ascites cells; 120 min): 0.39 μg/mg Ehrlich's cell
Bleomycin uptake (Ehrlich's ascites cells; 180 min): 0.55 μg/mg Ehrlich's cell
Bleomycin uptake (Ehrlich's ascites cells; Initial): 0 μg/mg Ehrlich's cell
mean survival time after inoculation ([5]; i.p., 11 mg/kg.day for 5 days (Test 7)): 54.3 days
Number of surviving mice ([5]; day 14): 8
Number of surviving mice ([5]; day 15): 8
Number of surviving mice ([5]; day 16): 8
Number of surviving mice ([5]; day 17): 8
Number of surviving mice ([5]; day 18): 8
Number of surviving mice ([5]; day 19): 8
Number of surviving mice ([5]; day 20): 8
Number of surviving mice ([5]; day 23): 8
Number of surviving mice ([5]; day 33): 8
Number of surviving mice ([5]; day 41): 8
Number of surviving mice ([5]; day 45): 6
Number of surviving mice ([5]; day 52): 4
Number of surviving mice ([5]; day 57): 4
Number of surviving mice ([5]; day 60): 4
Number of animals with mammary cancer/Number of tested animals (mammary cancer; group A, 50 mg/kg in feed): 8/30
Number of animals with mammary cancer/Number of tested animals (mammary cancer; group B, 250 mg/kg in feed): 4/30
Histological classification (per animal) (stomach carcinoma): I and 0
Borrmann's Classification (per animal) (stomach carcinoma): 0
Survival time (per animal) (stomach carcinoma): 337 days
carcinostatic, carcinostasis-reinforcing and carcinogenesis-preventing activities [6]: especially potent in activities

CCC(C)CCCCCCCCCCCCCO (centres unmarked) [14-methyl-1-hexadecanol]
mean survival time after inoculation [1]: 57.5 days
Histological classification (per animal) (stomach carcinoma): I and 0
Borrmann's Classification (per animal) (stomach carcinoma): 0
Number of animals with cancer (bladder mucous membrane): 0
Number of animals with papilloma (bladder mucous membrane): 0
Number of animals with papillary or tuberous hyperplasia (bladder mucous membrane): 0
Cancer, incidence (bladder mucous membrane): 0%
Papilloma, incidence (bladder mucous membrane): 0%
Papillary or tuberous hyperplasia, incidence (bladder mucous membrane): 0%
carcinostatic, carcinostasis-reinforcing and carcinogenesis-preventing activities [6]: especially potent in activities

CCCC(C)CCCCCCCCCCCCCO (centres unmarked) [14-methyl-1-heptadecanol]
Number of animals with cancer (bladder mucous membrane): 0
Number of animals with papilloma (bladder mucous membrane): 0
Number of animals with papillary or tuberous hyperplasia (bladder mucous membrane): 0
Cancer, incidence (bladder mucous membrane): 0%
Papilloma, incidence (bladder mucous membrane): 0%
Papillary or tuberous hyperplasia, incidence (bladder mucous membrane): 0%

CC(C)CCCCCCCCCCCCCCCO [16-methyl-1-heptadecanol]
mean tumor weight (adenocarcinoma 755 cells): 1.6 g
Cause of death (per animal) (stomach carcinoma): dead in cage
Histological classification (per animal) (stomach carcinoma): 0 and I-II
Borrmann's Classification (per animal) (stomach carcinoma): 0
Survival time (per animal) (stomach carcinoma): 305 days and 337 days
Number of animals with cancer (bladder mucous membrane): 0
Number of animals with papilloma (bladder mucous membrane): 0
Number of animals with papillary or tuberous hyperplasia (bladder mucous membrane): 1
Cancer, incidence (bladder mucous membrane): 0%
Papilloma, incidence (bladder mucous membrane): 0%
Papillary or tuberous hyperplasia, incidence (bladder mucous membrane): 4%

CC(C)CCCCCCCCCCCCCCCCCO [18-methyl-1-nonadecanol]
tumor growth suppressing effect [2]: effective
activity at 10 µM [2]: 0.41%
tumor growth suppressing effect [3]: effective
activity at 10 µM [3]: 1.5%
tumor growth suppressing effect [4]: effective
growth suppressed to [4]: 6.5×10^-3
Number of animals with cancer (bladder mucous membrane): 0
Number of animals with papilloma (bladder mucous membrane): 0
Number of animals with papillary or tuberous hyperplasia (bladder mucous membrane): 2
Cancer, incidence (bladder mucous membrane): 0%
Papilloma, incidence (bladder mucous membrane): 0%
Papillary or tuberous hyperplasia, incidence (bladder mucous membrane): 7%

CCC(C)CCCCCCCCCCCCCCCO (centres unmarked) [16-methyl-1-octadecanol]
mean tumor weight (adenocarcinoma 755 cells): 2.3 g
Cause of death (per animal) (stomach carcinoma): dead in cage
Histological classification (per animal) (stomach carcinoma): I and 0 and I-II
Borrmann's Classification (per animal) (stomach carcinoma): 0
Survival time (per animal) (stomach carcinoma): 301 days and 312 days and 337 days
